Target: tau (htau40), synthetic filaments (Homo sapiens, UniProt P10636)
Assay: Thioflavin S fluorescence displacement from synthetic htau40 filaments
Assay type: binding

Sequence of tau (htau40), synthetic filaments (P10636 1-441 isoform P10636-8): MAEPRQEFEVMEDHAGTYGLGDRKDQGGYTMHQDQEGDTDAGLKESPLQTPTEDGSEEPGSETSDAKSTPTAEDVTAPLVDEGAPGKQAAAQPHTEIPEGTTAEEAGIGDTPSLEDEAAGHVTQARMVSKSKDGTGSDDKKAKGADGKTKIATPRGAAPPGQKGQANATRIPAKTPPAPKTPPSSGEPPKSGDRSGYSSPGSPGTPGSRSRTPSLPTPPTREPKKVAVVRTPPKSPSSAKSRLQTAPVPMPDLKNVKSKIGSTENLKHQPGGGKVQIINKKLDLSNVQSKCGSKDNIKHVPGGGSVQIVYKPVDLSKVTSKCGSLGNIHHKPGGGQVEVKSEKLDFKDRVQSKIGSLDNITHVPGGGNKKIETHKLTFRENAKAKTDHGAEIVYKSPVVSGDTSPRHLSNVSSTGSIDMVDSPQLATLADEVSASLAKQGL

COc1ccc2nc(/N=N/c3ccc(N(C)C)cc3)sc2c1 [N3, (E)-2-[[4-(dimethylamino)phenyl]azo]-6-methoxybenzothiazole]
AC50: 36 ± 6 nM

Reference: publication PMC3740339 (Neurotoxicity research, 2009)
